Reference: patent publication US7811760B2, “Vector and method for detecting the change in transcription amount” (priority 2006, dated 2010)

Tested on: ligand-dependent transcription factors (AhR, ER, and AR)
Experiment: Reporter gene (luciferase) assay in Neuro2a cells carrying PGV-THp03 (SEQ ID No: 2)
Type: cell-based, mouse
Conditions: for luciferase activity increase: 30 hours, PGV-THp03, AhR-introduced Neuro2a
Protocol: A vector (PGV-THp03) containing the upstream region (SEQ ID No: 2) ranging from about −300 to 0 position of the TH gene-coding region, which was prepared in Example 4, was used. Neuro2a was used as the cell.
Two kinds of vectors, pcDNA4-rAhR (Example 1) and pcDNA4/V5-His/lacZ (Invitrogen), were introduced into Neuro2a, together with PGV-THp03. pcDNA4-rAhR was introduced for constitutive expression of the SD-line rat AhR gene (SEQ ID No: 10) in the cell, and pcDNA4/V5-His/lacZ was introduced for normalization of the vector transfection efficiency.
The vectors were introduced into the cell by using LIPOFECTAMINE 2000 (Invitrogen). The cell was cultured on a 24-well plate, and the operation was performed according to the manual of Invitrogen. A total of […] of vectors (0.4 μg of PGV-THp03, 0.2 μg of pcDNA4-rAhR, and 0.2 μg of pcDNA4/V5-His/lacZ) suspended in 50 μl of OPTI-MEM medium and 2 μl of LIPOFECTAMINE 2000 suspended in 50 μl of OPTI-MEM medium were mixed, and incubated at room temperature for 20 minutes to form nucleic acid/LIPOFECTAMINE 2000 complex. The obtained suspension containing the complex was added to Neuro2a cell culture, which has been previously cultured overnight in 500 μl of DF1:1 medium (containing 10% fetal calf serum) (0.8×10^5 cells were seeded on previous day), to allow incorporation of the vectors into the cell. The cell was cultured additionally for 24 hours after transfection, for the purpose of improvement in vector incorporation efficiency and expression of the protein derived from the introduced vectors.
As the test substances, vinclozolin (10 μM), dimethyl phthalate (10 μM), benzopyrene (1 μM), and dioxin (TCDD) (10 nM) were used. After the transfection and the additional incubation for 24 hours, the medium was replaced with a fresh medium containing any one of the test substances, and the cell was cultured additionally for 30 hours. After 30 hours, the medium was removed from the 24-well plate, and the cell was washed with phosphate buffer twice. 100 μl of a protein extraction solution (manufactured by TOYO B-NET) was added to each well, and the cell suspension was stirred gently at room temperature for 15 minutes and then frozen at −80° C. The frozen solution was thawed at room temperature, and the resulting solution was recovered in a tube and diluted ten times with a protein extraction reagent containing 1 mg/ml bovine serum albumin luciferase and β-galactosidase activities in the diluted solution were measured, and the expression amount of the reporter gene was calculated as a relative luminescence intensity per 1 ng of β-galactosidase per second (RLU/sec/ng β-galactosidase).

SMILES	luciferase activity increase (1 μM)	luciferase activity increase (10 μM)	change in luciferase activity (10 μM, PGV-THp03, cell with no AhR introduced)
c1ccc2c(c1)c1cccc3ccc4cccc2c4c31 [benzopyrene]	approximately 1.3 times		
COC(=O)c1ccccc1C(=O)OC [Dimethyl phthalate, dimethyl phthalate]		approximately 1.2 times	
C=CC1(C)OC(=O)N(c2cc(Cl)cc(Cl)c2)C1=O (stereo not shown) [vinclozolin]		approximately 1.3 times	no change in luciferase activity
